From US8933075B2, “Compounds useful as antiviral agents, compositions, and methods of use” (priority 2010, dated 2015) come the findings set out here.

Read-outs that look alike come from different tables or passages of the source.

For the experiment, the system named is A/Udorn/72 (H3N2) virus. In words: Plaque assay in MDCK cells: EC50 by reduction of plaque number. The format is cell-based, influenza virus.

In the case of `Cn1c(/C=C2\SC(=S)N(C3CC4CCC3C4)C2=O)cc(C#CCCCOC(=O)[C@@H]2CC(=O)N(C(C)(C)C)C(=O)N2)c1-c1ccc(Cl)cc1` (stereo partly drawn) [Compound 273], the EC50 (in general, the concentration at which the effect is half-maximal) (MDCK) lay in the range of 100 to 250 nM. In the case of `COc1cccc(-c2sc(/C=C3\SC(=S)N(C4C5CC6CC(C5)CC4C6)C3=O)cc2C#CCCCO)c1` (stereo not drawn) [Compound 289], the EC50 (MDCK) is below 100 nM. For the setting “MDCK”, `COc1cc(OC)cc(-c2cc(CCCOC(C)=O)c(/C=C3\SC(=S)N(C4CC5CCC4C5)C3=O)o2)c1` (stereo not drawn) [Compound 97] showed an EC50 below 100 nM.

For `CC(=O)OCCCc1cc(-c2ccc(Cl)cc2)[nH]c1/C=C1\SC(=S)N(C2CC3CCC2C3)C1=O` (stereo not drawn) [Compound 231], the EC50 (MDCK) was below 100 nM. On to `COc1cc(OC)cc(-c2cc(CCCN3CCOCC3)c(/C=C3\SC(=S)N(C4C5CC6CC(C5)CC4C6)C3=O)o2)c1` (stereo not drawn) [Compound 182], for which the EC50 (MDCK) was below 100 nM. As for `COc1cc(C)c(-c2ccc(/C=C3\SC(=S)N(C4CCCC4)C3=O)o2)cc1C` [Compound 51], for the setting “MDCK”, the EC50 was below 100 nM. With `O=C1/C(=C/c2ncc(-c3ccccc3)o2)SC(=S)N1C1CCCCCCC1` [Compound 66], where the note is “MDCK”, the EC50 was below 100 nM. `COCOc1cc(-c2ccc(/C=C3\SC(=S)N(C4CC5CCC4C5)C3=O)o2)cc(OC)c1OC` (stereo not drawn) [Compound 27] returned an EC50 (MDCK) below 100 nM. Take `COc1ccc2c(O)c(-c3ccc(-c4ccc(/C=C5\SC(=S)N(C6CC7CCC6C7)C5=O)o4)cc3)c(=O)oc2c1` (stereo not drawn) [Compound 227]: the EC50 (MDCK) is below 100 nM.

For `O=C1/C(=C/c2oc(-c3ccc(F)cc3)cc2CCCOC[C@@H](O)CO)SC(=S)N1C1CC2CCC1C2` (stereo partly drawn) [Compound 204, (Z)-3-(bicyclo[2.2.1]heptan-2-yl)-5-((3-(3-((S)-2,3-dihydroxypropoxy)propyl)-5-(4′-fluorophenyl)-furan-2-yl)methylene)-2-thioxothiazolidin-4-one], the EC50 (MDCK) was below 100 nM.

Take `O=C(O)c1ccc(-c2ccc(/C=C3\SC(=S)N(C4CC5CCC4C5)C3=O)o2)cc1` (stereo not drawn) [Compound 4]: the EC50 (MDCK) is below 100 nM. Molecule `COc1ccc(-c2ccc(/C=C3\SC(=S)N(C4CC5CCC4C5)C3=O)o2)cc1C(=O)N[C@@H](Cc1ccccc1)C(=O)O` (stereo partly drawn) [Compound 85] came in with an EC50 (MDCK) below 100 nM. The molecule `COc1ccc(-c2ccc(/C=C3\SC(=S)N(C4CC5CCC4C5)C3=O)o2)cc1C(=O)N[C@@H](Cc1cnc[nH]1)C(=O)O` (stereo partly drawn) [Compound 88] yielded an EC50 (MDCK) below 100 nM. `O=C1/C(=C/c2ccc(-c3ccc(Cl)cc3)s2)SC(=S)N1C1C2CC3CC(C2)CC1C3` (stereo not drawn) [Compound 317] returned an EC50 (MDCK) below 100 nM. In the case of `COc1cc(OC)cc(-c2cc(CCCOC(=O)[C@H](CCCNC(=O)OC(C)(C)C)NC(=O)OC(C)(C)C)c(/C=C3\SC(=S)N(C4CC5CCC4C5)C3=O)o2)c1` (stereo partly drawn) [Compound 139], for the setting “MDCK”, the EC50 is below 100 nM. In the case of `COc1cccc(-c2cc(CCCCCOC(=O)[C@H](CC(N)=O)NC(=O)OC(C)(C)C)c(/C=C3\SC(=S)N(C4CC5CCC4C5)C3=O)s2)c1` (stereo partly drawn) [Compound 313], where the note is “MDCK”, the EC50 was below 100 nM. `COc1cc(OC)cc(-c2cc(CCCOC(C)=O)c(/C=C3\SC(=S)N(C4C5CC6CC(C5)CC4C6)C3=O)o2)c1` (stereo not drawn) [Compound 98] returned an EC50 (MDCK) below 100 nM. Molecule `COc1cccc(-c2cc(CCCOC(=O)[C@@H](CC(N)=O)NC(=O)OC(C)(C)C)c(/C=C3\SC(=S)N(C4C5CC6CC(C5)CC4C6)C3=O)o2)c1` (stereo partly drawn) [Compound 354] displayed an EC50 (MDCK) below 100 nM.

In turn, `COCOc1cc(=O)oc2ccc(-c3ccc(/C=C4\SC(=S)N(C5C6CC7CC(C6)CC5C7)C4=O)o3)cc12` (stereo not drawn) [Compound 75] showed an EC50 (MDCK) of 250 to 1000 nM. `COc1cc(OCC(=O)O)cc(-c2ccc(/C=C3\SC(=S)N(C4C5CC6CC(C5)CC4C6)C3=O)o2)c1` (stereo not drawn) [Compound 38] came in with an EC50 (MDCK) below 100 nM. On the same count and under the same terms, to `COc1cc(OC)cc(-c2cc(CCCNC(=O)[C@H](Cc3ccc(OC(C)(C)C)cc3)NC(=O)OC(C)(C)C)c(/C=C3\SC(=S)N(C4CC5CCC4C5)C3=O)o2)c1` (stereo partly drawn) [Compound 160] belongs below 100 nM. Regarding `CCOC(=O)/C=C/c1ccc(/C=C2\SC(=S)N(C3C4CC5CC(C4)CC3C5)C2=O)o1` (stereo not drawn) [Compound 223, (E)-Ethyl 3-(5-((Z)-(3-(adamantan-2-yl)-4-oxo-2-thioxothiazolidin-5-ylidene)methyl)furan-2-yl)acrylate], the EC50 (MDCK) was below 100 nM. Molecule `COc1cc(OC)cc(-c2cc(CCCCCN3CCOCC3)c(/C=C3\SC(=S)N(C4CC5CCC4C5)C3=O)o2)c1` (stereo not drawn) [Compound 360] yielded an EC50 (MDCK) below 100 nM. On the same count and under the same terms, the result for `COc1cccc(-c2cc(C#CCCCOC(=O)[C@H](CC(N)=O)NC(=O)OC(C)(C)C)c(/C=C3\SC(=S)N(C4CC5CCC4C5)C3=O)s2)c1` (stereo partly drawn) [Compound 314] reads below 100 nM.

For `O=C1/C(=C/c2ccc(-c3cc(O)cc(O)c3)o2)SC(=S)N1C1C2CC3CC(C2)CC1C3` (stereo not drawn) [Compound 5], the EC50 (MDCK) was below 100 nM. With `O=C1/C(=C/c2ccc(-c3ccc(O)cc3)o2)SC(=S)N1C1C2CC3CC(C2)CC1C3` (stereo not drawn) [Compound 15], under “MDCK”, the EC50 is below 100 nM. Molecule `O=C1/C(=C/c2ccc(-c3ccc(Cl)cc3)s2)SC(=S)N1C1CC2CCC1C2` (stereo not drawn) [Compound 316] displayed an EC50 (MDCK) below 100 nM. Turning to `O=C1/C(=C/c2oc(-c3ccc(F)cc3)cc2CCCN2CCNCC2)SC(=S)N1C1C2CC3CC(C2)CC1C3` (stereo not drawn) [Compound 189], for the setting “MDCK”, the EC50 was below 100 nM.

Consider `COCOc1cc(-c2ccc(/C=C3\SC(=S)N(C4C5CC6CC(C5)CC4C6)C3=O)o2)cc(OC)c1OC` (stereo not drawn) [Compound 25], for which, for the setting “MDCK”, the EC50 was below 100 nM.

For the molecule `O=C1/C(=C/c2sc(-c3cccc(Cl)c3)cc2C#CCCCO)SC(=S)N1C1CC2CCC1C2` (stereo not drawn) [Compound 286], the EC50 (MDCK) is below 100 nM. For `O=C1/C(=C/c2[nH]c(-c3ccc(Cl)cc3)cc2CCCCCO)SC(=S)N1C1CC2CCC1C2` (stereo not drawn) [Compound 230], the EC50 (MDCK) is below 100 nM.

On to `COc1cc(-c2ccc(/C=C3\SC(=S)N(C4CC5CCC4C5)C3=O)o2)ccc1O` (stereo not drawn) [Compound 24], for which the EC50 (MDCK) is below 100 nM.

`O=C1/C(=C/c2oc(-c3ccc(Cl)cc3)cc2CCCCCO)SC(=S)N1C1C2CC3CC(C2)CC1C3` (stereo not drawn) [Compound 334] registered an EC50 (MDCK) below 100 nM.

For `O=C1/C(=C/c2ccco2)SC(=S)N1C1CCCCC1` [Compound 220], the EC50 (MDCK) is 250 to 1000 nM. In turn, `COc1cccc(-c2cc(CCCO)c(/C=C3\SC(=S)N(C4C5CC6CC(C5)CC4C6)C3=O)[nH]2)c1` (stereo not drawn) [Compound 233] showed an EC50 below 100 nM.

Take `COc1ccc(-c2ccc(/C=C3\SC(=S)N(C4CC5CCC4C5)C3=O)o2)cc1O` (stereo not drawn) [Compound 10]: the EC50 (MDCK) is below 100 nM.

For the setting “MDCK”, `COc1ccc2oc(=O)c(-c3ccc(/C=C4\SC(=S)N(C5CC6CCC5C6)C4=O)o3)c(O)c2c1` (stereo not drawn) [Compound 69] came in with an EC50 of 100 to 250 nM. Take `O=C1/C(=C/c2cn(-c3ccc([N+](=O)[O-])cc3)cn2)SC(=S)N1C1CCCCCCC1` [Compound 62]: the EC50 (MDCK) lay within 250 to 1000 nM. With `O=C1/C(=C/c2c[nH]c3ccccc23)SC(=S)N1C1C2CC3CC(C2)CC1C3` (stereo not drawn) [Compound 215, 3-adamantan-2-yl-5-(1H-indol-3-ylmethylene)-2-thioxo-thiazolidin-4-one], the EC50 (MDCK) is below 100 nM. With `COc1cccc(-c2cc(CCCO)c(/C=C3\SC(=S)N(C4CC5CCC4C5)C3=O)[nH]2)c1` (stereo not drawn) [Compound 232], where the note is “MDCK”, the EC50 was below 100 nM. Take `O=C1/C(=C/c2coc3ccc(Br)cc3c2=O)SC(=S)N1C1C2CC3CC(C2)CC1C3` (stereo not drawn) [Compound 210, 3-adamantan-2-yl-5-(6-bromo-4-oxo-4H-chromen-3-ylmethylene)-2-thioxo-thiazolidin-4-one]: under “MDCK”, the EC50 was below 100 nM.

`COc1ccc2c(O)c(-c3ccc(/C=C4\SC(=S)N(C5C6CC7CC(C6)CC5C7)C4=O)o3)c(=O)oc2c1OC` (stereo not drawn) [Compound 72] registered an EC50 (MDCK) of 100 to 250 nM. In turn, `O=C1/C(=C/c2sc(-c3ccc(Cl)cc3)cc2C#CCCCO)SC(=S)N1C1C2CC3CC(C2)CC1C3` (stereo not drawn) [Compound 290] registered an EC50 (MDCK) below 100 nM. `COc1ccc(-c2ccc(/C=C3\SC(=S)N(C4CC5CCC4C5)C3=O)o2)cc1OCC(=O)O` (stereo not drawn) [Compound 35]: the EC50 (MDCK) is below 100 nM.

Under “MDCK”, `COc1cc(O)cc(-c2cc(CCCOC(=O)[C@H](CC(=O)OC(C)(C)C)NC(=O)OC(C)(C)C)c(/C=C3\SC(=S)N(C4CC5CCC4C5)C3=O)o2)c1` (stereo partly drawn) [Compound 149] returned an EC50 below 100 nM. Take `O=C(O)c1ccc(-c2ccc(/C=C3\SC(=S)N(C4C5CC6CC(C5)CC4C6)C3=O)o2)cc1` (stereo not drawn) [Compound 3]: the EC50 (MDCK) is below 100 nM. Where the note is “MDCK”, `COc1ccc2c(O)c(-c3ccc(/C=C4\SC(=S)N(C5C6CC7CC(C6)CC5C7)C4=O)o3)c(=O)oc2c1` (stereo not drawn) [Compound 74] registered an EC50 of 100 to 250 nM. Under “MDCK”, `COc1ccc(-c2cc(CCCO)c(/C=C3\SC(=O)N(C4CC5CCC4C5)C3=O)o2)cc1OCC(=O)N1CCC[C@H]1C(=O)O` (stereo partly drawn) [Compound 349] yielded an EC50 below 100 nM.

On to `O=C1/C(=C/c2cc3ccccc3o2)SC(=S)N1C1CC2CCC1C2` (stereo not drawn) [Compound 217], for which, for the setting “MDCK”, the EC50 is below 100 nM. For `COc1ccc(-c2cc(CCCCCO)c(/C=C3\SC(=S)N(C4C5CC6CC(C5)CC4C6)C3=O)o2)cc1` (stereo not drawn) [Compound 342], the EC50 (MDCK) was below 100 nM.

Molecule `COc1cc(OCC(=O)OC(C)(C)C)cc(-c2ccc(/C=C3\SC(=S)N(C4CC5CCC4C5)C3=O)o2)c1` (stereo not drawn) [Compound 39] yielded an EC50 (MDCK) below 100 nM. On the same count and under the same terms, to `COc1cc(OC)cc(-c2cc(CCCOC(=O)[C@@H](N)Cc3ccccc3)c(/C=C3\SC(=S)N(C4CC5CCC4C5)C3=O)o2)c1` (stereo partly drawn) [Compound 153] belongs below 100 nM; to `O=C1/C(=C/c2oc(-c3ccc(Cl)cc3)cc2CCCO)SC(=S)N1C1C2CC3CC(C2)CC1C3` (stereo not drawn) [Compound 100], below 100 nM. In turn, `COc1cc(OC)cc(-c2cc(CCCOC[C@@H](O)CO)c(/C=C3\SC(=S)N(C4CC5CCC4C5)C3=O)o2)c1` (stereo partly drawn) [Compound 202, (Z)-3-(bicyclo[2.2.1]heptan-2-yl)-5-((3-(3-((S)-2,3-dihydroxypropoxy)propyl)-5-(3′,5′-dimethoxy-phenyl)-furan-2-yl)methylene)-2-thioxothiazolidin-4-one] had an EC50 (MDCK) below 100 nM. `COc1ccc(-c2ccc(/C=C3\SC(=S)N(C4CC5CCC4C5)C3=O)o2)cc1C(=O)N1CCC[C@H]1C(=O)O` (stereo partly drawn) [Compound 89] registered an EC50 (MDCK) below 100 nM.

The molecule `COc1ccc(-c2ccc(/C=C3\SC(=S)N(C4CC5CCC4C5)C3=O)o2)cc1OCC(=O)N[C@@H](Cc1ccccc1)C(=O)O` (stereo partly drawn) [Compound 79] returned an EC50 (MDCK) below 100 nM. For `O=C1/C(=C/c2oc(-c3cccc(Cl)c3)cc2CCCCCO)SC(=S)N1C1C2CC3CC(C2)CC1C3` (stereo not drawn) [Compound 346], where the note is “MDCK”, the EC50 was below 100 nM.
